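Where inhibition never reached the appropriate level, the endpoint shown equals the highest concentration tested. Otherwise, values were interpolated linearly from a five-concentration, 48-hour dose response in 96-well plates. At the GI50, growth is halved.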 Active and inactive are the calls of the source. Rule as the data show it: active = GI50 up to about 1.1 µM and inactive = higher.
What was measured:
Experiment in all cases: inhibition of tumour cell growth, NCI panel, 48 h
EKVX = system: EKVX
MDA-MB-435 = system: MDA-MB-435
SR = system: SR
SNB-19 = system: SNB-19
SF-539 = system: SF-539
MCF7 = system: MCF7
RPMI-8226 = system: RPMI-8226
SF-295 = system: SF-295
786-0 = system: 786-0
NCI-H226 = system: NCI-H226
HCT-15 = system: HCT-15
K562 = system: K562
SW-620 = system: SW-620
ACHN = system: ACHN
LOX IMVI = system: LOX IMVI
CAKI-1 = system: CAKI-1
OVCAR-8 = system: OVCAR-8
BT-549 = system: BT-549
KM12 = system: KM12
SNB-75 = system: SNB-75
HOP-92 = system: HOP-92
T47D = system: T47D
UACC-257 = system: UACC-257
U-251 = system: U-251
UACC-62 = system: UACC-62
SK-MEL-2 = system: SK-MEL-2
MDA-MB-231 = system: MDA-MB-231
HCC 2998 = system: HCC 2998
A498 = system: A498
RXF 393 = system: RXF 393
CCRF-CEM = system: CCRF-CEM
NCI-H23 = system: NCI-H23
A549 = system: A549
HOP-62 = system: HOP-62
MOLT-4 = system: MOLT-4
SK-MEL-5 = system: SK-MEL-5
PC-3 = system: PC-3
OVCAR-5 = system: OVCAR-5
Hs-578T = system: Hs-578T
HL-60 = system: HL-60
NCI-H522 = system: NCI-H522
UO-31 = system: UO-31
HCT-116 = system: HCT-116
DU-145 = system: DU-145
SN12C = system: SN12C
SF-268 = system: SF-268
IGROV-1 = system: IGROV-1
NCI/ADR-RES = system: NCI/ADR-RES
SK-MEL-28 = system: SK-MEL-28
M14 = system: M14
NCI-H460 = system: NCI-H460
COLO 205 = system: COLO 205
OVCAR-3 = system: OVCAR-3
OVCAR-4 = system: OVCAR-4
HT-29 = system: HT-29
Malme-3M = system: Malme-3M
MDA-N = system: MDA-N
TK-10 = system: TK-10

## CC1(C)Oc2ccc3ccc(=O)oc3c2C(O)C1O (stereo unspecified)
EKVX
  GI50: 48.1 µM (inactive)
MDA-MB-435
  GI50: 33.7 µM (inactive)
SR
  GI50: 59.4 µM (inactive)
SNB-19
  GI50: > 100 µM (inactive)
SF-539
  GI50: 22.9 µM (inactive)
MCF7
  GI50: 33.9 µM (inactive)
RPMI-8226
  GI50: 30.2 µM (inactive)
SF-295
  GI50: 36.1 µM (inactive)
786-0
  GI50: 45 µM (inactive)
NCI-H226
  GI50: 48.3 µM (inactive)
HCT-15
  GI50: 41.9 µM
K562
  GI50: 37.6 µM (inactive)
SW-620
  GI50: 61.1 µM (inactive)
ACHN
  GI50: 44.6 µM (inactive)
LOX IMVI
  GI50: 29.5 µM (inactive)
CAKI-1
  GI50: 67.1 µM (inactive)
OVCAR-8
  GI50: 34 µM (inactive)
BT-549
  GI50: 22.5 µM (inactive)
KM12
  GI50: 31.9 µM (inactive)
SNB-75
  GI50: 38.8 µM (inactive)
HOP-92
  GI50: 57.8 µM (inactive)
T47D
  GI50: 35.3 µM (inactive)
UACC-257
  GI50: 29.4 µM (inactive)
U-251
  GI50: 38.3 µM (inactive)
UACC-62
  GI50: 8.39 µM (inactive)
SK-MEL-2
  GI50: > 100 µM (inactive)
MDA-MB-231
  GI50: 71.8 µM (inactive)
HCC 2998
  GI50: > 100 µM (inactive)
A498
  GI50: > 100 µM (inactive)
RXF 393
  GI50: 67.1 µM (inactive)
CCRF-CEM
  GI50: 31.7 µM (inactive)
NCI-H23
  GI50: 44.2 µM (inactive)
A549
  GI50: 32.2 µM (inactive)
HOP-62
  GI50: 36.1 µM (inactive)
MOLT-4
  GI50: 21.7 µM (inactive)
SK-MEL-5
  GI50: 15.9 µM (inactive)
PC-3
  GI50: 31.6 µM (inactive)
OVCAR-5
  GI50: > 100 µM (inactive)
Hs-578T
  GI50: 52.1 µM (inactive)
HL-60
  GI50: 33.3 µM (inactive)
NCI-H522
  GI50: 33.7 µM (inactive)
UO-31
  GI50: 27.5 µM (inactive)
HCT-116
  GI50: 38.8 µM (inactive)
DU-145
  GI50: 55.8 µM (inactive)
SN12C
  GI50: > 100 µM (inactive)
SF-268
  GI50: 40.6 µM (inactive)
IGROV-1
  GI50: 33.2 µM (inactive)
NCI/ADR-RES
  GI50: 34 µM (inactive)
SK-MEL-28
  GI50: 37.5 µM (inactive)
M14
  GI50: 36.6 µM (inactive)
NCI-H460
  GI50: 40 µM (inactive)
COLO 205
  GI50: 21.8 µM (inactive)
OVCAR-3
  GI50: 37.2 µM (inactive)
OVCAR-4
  GI50: 39.5 µM (inactive)
HT-29
  GI50: 28.1 µM (inactive)
Malme-3M
  GI50: 40.3 µM (inactive)
MDA-N
  GI50: 35.1 µM (inactive)

## COC(=O)/C=C/c1ccc2c(c1)CC1(C2)Cc2cc3c(cc2C1=O)CCC3 (stereo unspecified)
EKVX
  GI50: 55.6 µM (inactive)
MDA-MB-435
  GI50: > 100 µM (inactive)
SR
  GI50: 44.1 µM (inactive)
SNB-19
  GI50: 31.6 µM (inactive)
SF-539
  GI50: 31 µM (inactive)
MCF7
  GI50: > 100 µM (inactive)
RPMI-8226
  GI50: 15 µM (inactive)
SF-295
  GI50: 34.1 µM (inactive)
786-0
  GI50: 27 µM (inactive)
NCI-H226
  GI50: 49.3 µM (inactive)
HCT-15
  GI50: > 100 µM
K562
  GI50: > 100 µM (inactive)
SW-620
  GI50: > 100 µM (inactive)
ACHN
  GI50: 39.5 µM (inactive)
LOX IMVI
  GI50: > 100 µM (inactive)
CAKI-1
  GI50: 36.2 µM (inactive)
OVCAR-8
  GI50: 25.1 µM (inactive)
BT-549
  GI50: > 100 µM (inactive)
KM12
  GI50: 56.8 µM (inactive)
SNB-75
  GI50: 24.9 µM (inactive)
HOP-92
  GI50: 35.3 µM (inactive)
T47D
  GI50: 11.1 µM (inactive)
UACC-257
  GI50: > 100 µM (inactive)
U-251
  GI50: 26.5 µM (inactive)
UACC-62
  GI50: > 100 µM (inactive)
SK-MEL-2
  GI50: > 100 µM (inactive)
MDA-MB-231
  GI50: 39 µM (inactive)
HCC 2998
  GI50: > 100 µM (inactive)
A498
  GI50: > 100 µM (inactive)
RXF 393
  GI50: 24.5 µM (inactive)
CCRF-CEM
  GI50: > 100 µM (inactive)
A549
  GI50: 40.3 µM (inactive)
MOLT-4
  GI50: > 100 µM (inactive)
SK-MEL-5
  GI50: 74.8 µM (inactive)
PC-3
  GI50: 88.9 µM (inactive)
Hs-578T
  GI50: 25.2 µM (inactive)
HL-60
  GI50: 7.98 µM (inactive)
NCI-H522
  GI50: 31.1 µM (inactive)
UO-31
  GI50: 50.8 µM (inactive)
HCT-116
  GI50: 15.7 µM (inactive)
TK-10
  GI50: 57.3 µM (inactive)
DU-145
  GI50: > 100 µM (inactive)
SN12C
  GI50: > 100 µM (inactive)
SF-268
  GI50: 46.2 µM (inactive)
IGROV-1
  GI50: 24.3 µM (inactive)
NCI/ADR-RES
  GI50: 42.5 µM (inactive)
SK-MEL-28
  GI50: > 100 µM (inactive)
M14
  GI50: 47 µM (inactive)
NCI-H460
  GI50: 80.9 µM (inactive)
COLO 205
  GI50: > 100 µM (inactive)
OVCAR-3
  GI50: 4.63 µM (inactive)
OVCAR-4
  GI50: 43.2 µM (inactive)
Malme-3M
  GI50: 42 µM (inactive)
MDA-N
  GI50: > 100 µM (inactive)

From ChEMBL document CHEMBL1201862, “PubChem BioAssay data set” (2004)
